Source: PMC5078025, “Necrosis-inducing peptide has the beneficial effect on killing tumor cells through neuropilin (NRP-1) targeting” (Oncotarget, 2016)
Bridge positions count the residues as written; N and C are the ends. Ends that are not written are not given here. Peptide text beside a SMILES is read from it.

What was measured:
BALB/c mice = assay: Toxicity and movement activity after i.v. injection; conditions: for Movement Activities: BALB/c (around 20 gm) mice, i.v. single dose 75 μl of 1 mM, within 30 minutes; for toxicity by mouse movements: BALB/c mice, i.v. single dose 75 μl of 1 mM per mouse, movements within 30 minutes, observed up to one week
Description: To design a MTD peptide anti-cancer drug, the MTD peptide was fused to various known tumor-homing motifs through its N-terminal or C-terminal region, and a linker was introduced between these two motifs to impart flexibility and minimize steric hindrance (Figure 1A, Supplementary Table S1). The MTD peptides fused with tumor-homing motifs (hereafter designated TU:MTDs) were synthesized as linear or cyclic entities using L-amino acids (Supplementary Table S1), and were evaluated for their killing activity using CT26 cells in vitro (Supplementary Figure S1). […] Thus, BALB/c mouse movements were also evaluated within 30 minutes of the intravenous injection of a single dose of 75 μl of 1 mM TU:MTDs per mouse. […] We also searched for a TU:MTD with a potent in vivo effect by observing tumor volumes in three BALB/c mice bearing CT26 adenocarcinoma that were injected with 100 μl of 1 mM TU:MTDs per day for 2 or 3 consecutive days (Figure 1B). […] The tumor-homing motif of TU17:MTD has a “RPARPAR” sequence containing the C-end rule (CendR) element that has known to bind to neuropilin-1 (NRP-1), although the “RPARPAR” sequence is located at the N-terminus of the MTD rather than at the C-terminus. […]
1 mM) were i.v. injected into BALB/c (around 20 gm) mice at a single dose. “Slow” means not moving around in the cage.
“Normal” means normally moving around in the cage. “Toxic” means necrosis in tail vein within 2 ~ 3 days after injection.
(§1) Abbreviation: NR; no regression, ND; not determined. […]

various tumor cells = conditions: four leucine residues of MTD replaced by alanine; cited from earlier work
Source text: We reported a 10-residue long, pro-necrotic peptide derived from the mitochondrial targeting domain (MTD) located in the C-terminal region of Noxa, a BH-3 only protein of Bcl-2 family. The MTD region of Noxa is responsible not only for mitochondrial targeting of Noxa but also for mitochondrial fragmentation induced by Noxa. Two […]) in the region of MTD play a key role in mitochondrial fragmentation induced by Noxa. […] Therefore, we determined whether TU17:MTD could discriminate tumor and normal cells in vitro.

Serum AST and ALT assays = assay type: in vivo, mice
Description: To assay the activities of ALT and AST, mouse serum was prepared by centrifuging blood at 2500 × g for 15 minutes at 4°C. Enzyme activities were determined, according to the manufacturer's instructions. […]
the first injection of the peptides. […]
necrosis in tail vein upon injection.
“Slow” means not moving around in the cage.
“Normal” means normally moving around in the cage.
as §1
aminotransferase) in mice treated with TU17:MTD
Treatment Serum aminotransferase (karman units/ml)
White blood Hemoglobin Platelets Neutrophils Lymphocyts Monocytes
Treatments cells (g/dl) (×103 cell/μl) (%) (%) (%)

CT26 cells = assay: XTT cell viability / killing activity in CT26 cells; assay type: cell-based; conditions: CT26 cells, TU:MTDs 0 ~ 20 μM, 30 minutes, XTT
Description: Figure 1 Identification of TU17:MTD as a tumor targeting peptide (A) Schematic diagram of the fusion peptides consisting of the tumor-homing motif, linker, and mitochondrial targeting domain (MTD). (B) Tumors were generated over 2 weeks after s.c. injection of CT26 cells into the backs of BALB/c mice. When tumor volumes reached palpable size, the indicated TU:MTDs (100 μl of 1 mM TU:MTDs) or PBS were administrated i.v. twice or three times. […] Arrows indicate the points of peptide injection. P values < 0.02 (control group vs TU17:MTD at day 5, 6, 7, 8, and 9) (C) HCT116, HeLa, A549, MCF-7, PC3, and BJAB cells were treated with TU17:MTD (0 ~ 20 μM) for 30 minutes, and cell viability was monitored using XTT assays. *P < 0.05 (D) Primary splenocytes and macrophages were treated with TU17:MTD (0 ~ 20 μM) for 30 minutes, and cell viability was monitored by XTT assay. *P < 0.05 (E) CT26 cells were treated with R8:MTD, TU17:MTD, TU17-2:MTD or TU17:MTD^4A (0 ~ 40 μM) for 4 hours, and cell viability was monitored by XTT assay. Results in C to E are expressed as means ± SD (triplicates), and are representative of at least two independent experiments. P values are for experimental groups versus controls and were calculated using Dunnett's t-test. *P < 0.05.
Figure 5 Anti-NRP-1 antibody blocks TU17:MTD-induced necrosis (A) CT26 cells (2 × 10^4 cells/cm^2) were treated with TU17:MTD-FAM (500 nM) peptide or TU17^mut:MTD (500 nM) peptide. […] The viability was measured by using the XTT assay. *P < 0.05, **P < 0.01. […] The percentage of FAM-positive cells (%) were determined (n = over 200 cells). *P < 0.05, ***P < 0.001.
Cells were cultured in 96 well plates (2 × 10^5) overnight and treated with TU:MTDs. Cell viabilities were assessed using a XTT-based colorimetric assay kit, according to the manufacturer's instructions. […]
Supplementary FigureS1: Killing activity of TU:MTDs in CT26 cells. CT26 cells were treated with TU:MTDs (0 ~ 20 μM) for 30 minutes, and cell viability was monitored using XTT assays. […]

[1] = CCl4-treated mice, chemically-induced liver damage model

Compound | Movement Activities (BALB/c mice) | toxicity by mouse movements (BALB/c mice) | further results
KLLNLISKLFGGRPARPAR [TU18:MTD] | Slow | toxic | 
CGKRKGGKLLNLISKLF [TU19:MTD] | Normal | no apparent toxicities | 
CC[C@H](C)[C@H](NC(=O)[C@H](CC(C)C)NC(=O)[C@H](CC(N)=O)NC(=O)[C@H](CC(C)C)NC(=O)[C@H](CC(C)C)NC(=O)[C@H](CCCCN)NC(=O)CNC(=O)CNC(=O)[C@H](CS)NC(=O)CNC(=O)[C@H](CCCNC(=N)N)NC(=O)[C@@H](NC(=O)[C@H](CCCNC(=N)N)NC(=O)[C@H](CCCCN)NC(=O)[C@H](CC(N)=O)NC(=O)CNC(=O)[C@@H](N)CS)[C@@H](C)O)C(=O)N[C@@H](CO)C(=O)N[C@@H](CCCCN)C(=O)N[C@@H](CC(C)C)C(=O)N[C@@H](Cc1ccccc1)C(=O)O [TU3:MTD] (H-CGNKRTRGCGGKLLNLISKLF-OH) | Normal | no apparent toxicities | 
KLLNLISKLFGGCRGDK [TU22:MTD] | Normal | no apparent toxicities | 
CC[C@H](C)[C@H](NC(=O)[C@H](CC(C)C)NC(=O)[C@H](CC(N)=O)NC(=O)[C@H](CC(C)C)NC(=O)[C@H](CC(C)C)NC(=O)[C@H](CCCCN)NC(=O)[C@H](CS)NC(=O)[C@H](CC(=O)O)NC(=O)[C@@H]1CCCN1C(=O)CNC(=O)[C@H](CCCCN)NC(=O)[C@H](CC(=O)O)NC(=O)CNC(=O)[C@H](CCCNC(=N)N)NC(=O)[C@@H](N)CS)C(=O)N[C@@H](CO)C(=O)N[C@@H](CCCCN)C(=O)N[C@@H](CC(C)C)C(=O)N[C@@H](Cc1ccccc1)C(=O)O [TU9:MTD] (H-CRGDKGPDCKLLNLISKLF-OH) | Normal | no apparent toxicities | 
WDLAWMFRLPVGKLLNLISKLF [TU5:MTD] | Normal | no apparent toxicities | 
KLLNLISKLFGGCGKRK [TU20:MTD] | Normal | no apparent toxicities | 
CC[C@H](C)[C@H](NC(=O)[C@H](CC(C)C)NC(=O)[C@H](CC(N)=O)NC(=O)[C@H](CC(C)C)NC(=O)[C@H](CC(C)C)NC(=O)[C@H](CCCCN)NC(=O)CNC(=O)CNC(=O)[C@H](CS)NC(=O)[C@H](CCCNC(=N)N)NC(=O)CNC(=O)[C@H](CC(N)=O)NC(=O)[C@@H](N)CS)C(=O)N[C@@H](CO)C(=O)N[C@@H](CCCCN)C(=O)N[C@@H](CC(C)C)C(=O)N[C@@H](Cc1ccccc1)C(=O)O [TU1:MTD] (H-CNGRCGGKLLNLISKLF-OH) | Slow | toxic | 
RLLRLLRLLRGGKLLNLISKLF [TU15:MTD] | Slow | toxic | 
CC[C@H](C)[C@H](NC(=O)[C@H](CC(C)C)NC(=O)[C@H](CC(N)=O)NC(=O)[C@H](CC(C)C)NC(=O)[C@H](CC(C)C)NC(=O)[C@@H](N)CCCCN)C(=O)N[C@@H](CO)C(=O)N[C@@H](CCCCN)C(=O)N[C@@H](CC(C)C)C(=O)N[C@@H](Cc1ccccc1)C(=O)N[C@@H](CS)C(=O)NCC(=O)N[C@@H](CCCNC(=N)N)C(=O)N[C@@H](CC(=O)O)C(=O)N[C@@H](CCCCN)C(=O)NCC(=O)N1CCC[C@H]1C(=O)N[C@@H](CC(=O)O)C(=O)N[C@@H](CS)C(=O)O [TU7:MTD] (H-KLLNLISKLFCGRDKGPDC-OH) |  | no apparent toxicities | 
CC[C@H](C)[C@H](NC(=O)[C@H](CC(C)C)NC(=O)[C@H](CC(N)=O)NC(=O)[C@H](CC(C)C)NC(=O)[C@H](CC(C)C)NC(=O)[C@H](CCCCN)NC(=O)[C@H](CS)NC(=O)[C@H](CC(=O)O)NC(=O)[C@@H]1CCCN1C(=O)CNC(=O)[C@H](CCCCN)NC(=O)[C@H](CC(=O)O)NC(=O)[C@H](CCCNC(=N)N)NC(=O)CNC(=O)[C@@H](N)CS)C(=O)N[C@@H](CO)C(=O)N[C@@H](CCCCN)C(=O)N[C@@H](CC(C)C)C(=O)N[C@@H](Cc1ccccc1)C(=O)O [TU6:MTD] (H-CGRDKGPDCKLLNLISKLF-OH) | Normal | no apparent toxicities | 
KLLNLISKLFGGRLLRLLRLLR [TU16:MTD] | Normal | no apparent toxicities | 
KLLNLISKLF [MTD] |  |  | killing activity and mitochondrial targeting activity (various tumor cells): abolishes the killing activity and mitochondrial targeting activity
ClC(Cl)(Cl)Cl [CCl4] |  |  | Serum aminotransferase ALT (Serum AST and ALT assays; [1]): 558.8 ± 7.2 karman units/ml; Serum aminotransferase AST (Serum AST and ALT assays; [1]): 42.8 ± 3.7 karman units/ml; serum levels of AST and ALT (Serum AST and ALT assays; mice): substantially higher
CRGDKGGKLLNLISKLF [TU21:MTD] | Slow | toxic | 
KLLNLISKLFCRGDKGPDC (disulfide 11-19 (inferred)) [TU10:MTD] | Slow | toxic | 
WIFPWIQLKLLNLISKLF [TU4:MTD] | Slow | toxic | 
CC[C@H](C)[C@H](NC(=O)[C@H](CC(C)C)NC(=O)[C@H](CC(N)=O)NC(=O)[C@H](CC(C)C)NC(=O)[C@H](CC(C)C)NC(=O)[C@@H](N)CCCCN)C(=O)N[C@@H](CO)C(=O)N[C@@H](CCCCN)C(=O)N[C@@H](CC(C)C)C(=O)N[C@@H](Cc1ccccc1)C(=O)N[C@@H](CS)C(=O)NCC(=O)N[C@@H](CCCNC(=N)N)C(=O)N[C@@H](CC(=O)O)C(=O)N[C@@H](CCCCN)C(=O)N[C@@H](CCCNC(=N)N)C(=O)N[C@@H](CC(C)C)C(=O)N[C@@H](Cc1ccc(O)cc1)C(=O)N[C@@H](CC(=O)O)C(=O)N[C@@H](CS)C(=O)O [TU8:MTD] (H-KLLNLISKLFCGRDKRLYDC-OH) | Dead | highly toxic | cytotoxicity to CT26 cells in vitro (CT26 cells): not cytotoxic
